Results on ten compounds are retold here after patent US10792282B2, “Protein kinase C inhibitors and uses thereof” (Rigel Pharmaceuticals, Inc., priority 2013, dated 2020).

In the experiment the test system is PKC mediated IL-2 production. In words: IL-2 ELISA, human primary T cell, anti CD3+CD28+ (whole cell functional assay). The format is cell-based. The procedure:
Human primary T cells were prepared as follows. Fresh PBMC's from All Cells (Cat # PB002) were re-suspended in RPMI (RPMI-1640 with L-Glutamine; Mediatech, Inc., Herndon Va., cat. #10-040-CM) with 10% FBS and seeded into flasks and incubated at 37° C. for 2 hours to allow the monocytes to adhere. The non-adherent cells were then centrifuged and re-suspended in RPMI medium containing 40 U/ml IL2 and seeded into a flask pre-coated with 1 μg/ml aCD3 and 5 ug/ml aCD28 (Anti-Human CD3, BD Pharmingen Catalog #555336, Anti-Human CD28, Beckman Coulter Catalog # IM1376). The cells were stimulated for 3-4 days, then transferred to a fresh flask and maintained in RPMI (RPMI-1640 with L-Glutamine; Mediatech, Inc., Herndon Va., cat. #10-040-CM) with 10% FBS and 40 U/ml IL-2.
(§1) Human primary T cells (100,000 cells per well) were pre-incubated with or without test compound in RPMI-1640 with L-Glutamine and 10% FBS for 1 hour at 37° C. Cells were then stimulated by transferring them to round-bottom 96-well plates pre-coated with 1 μg/ml αCD3 and 5 μg/ml αCD28. For counter assay, cells were instead stimulated by adding 8× stock solutions of PMA and ionomycin in RPMI-1640 with L-Glutamine and 10% FBS (for final concentrations of 0.5 ng/ml PMA and 0.1 μM ionomycin, both from Calbiochem). Cells were incubated at 37° C. for 24 hours before 100 μL supernatants were harvested for quantification of IL-2 by ELISA using Human IL-2 Duoset ELISA Kit from R and D Systems, Cat. # DY202E.
Compounds 1-90 were tested in a whole cell functional assay for PKC mediated IL-2 production as follows. Human primary T cell isolation and culture: Human primary T cells were prepared as follows. Whole blood was obtained from a healthy volunteer, mixed 1:1 with PBS, layered on to Ficoll Hypaque (Amersham Pharmacia Biotech, Piscataway, N.J., Catalog #17-1440-03) in 2:1 blood/PBS:ficoll ratio and centrifuged for 30 minutes at 4° C. at 1750 rpm. The cells at the serum: ficoll interface were recovered and washed twice with 5 volumes of PBS. These freshly isolated human peripheral blood mononuclear cells were cultured in Yssel's medium containing 40 U/ml IL2 in a flask pre-coated with 1 μg/ml αCD3 and 5 μg/ml αCD28 (Anti-Human CD3, BD Pharmingen Catalog #555336, Anti-Human CD28, Beckman Coulter Catalog # IM1376). The cells were stimulated for 3-4 days, then transferred to a fresh flask and maintained in RPMI (RPMI-1640 with L-Glutamine; Mediatech, Inc., Herndon Va., cat. #10-040-CM) with 10% FBS and 40 U/ml IL-2. The primary T-cells were then washed twice with PBS to remove the IL-2.
as §1, with “Primary T cell stimulation and IL2 ELISA: Human primary” for “Human primary”, “compound in Yssel's medium for 1” for “compound in RPMI-1640 with L-Glutamine and 10% FBS for 1”, “ionomycin in Yssels (for final” for “ionomycin in RPMI-1640 with L-Glutamine and 10% FBS (for final”, “and 0.1 uM ionomycin, both” for “and 0.1 μM ionomycin, both”
A general note: An ELISA detects its analyte on a solid surface through an enzyme-linked reagent.

Where [1] appears, read: Homo sapiens, T-cell, 24 h, IL-2 production, human primary T cells stimulated with αCD3 and αCD28, 24 hours, IL-2 by ELISA, read-out: EC50.
[2] abbreviates: Homo sapiens, T-cell, human primary T cells stimulated with αCD3 and αCD28, IL-2 by ELISA, read-out: EC50 (blocked IL-2 production).
Where [3] appears, read: IL-2 production, human primary T cells stimulated with αCD3 and αCD28, 24 hours, IL-2 by ELISA, read-out: EC50.

The structures appear in SMILES notation. Where two headings read alike, the source gives them in different places. A value given as a limit tells only on which side of the number the result lay.

For the compound `CC1(C)C[C@H](Nc2nc(Nc3cc(-n4cnnn4)c(C4CC4)cc3F)ncc2C#N)C[C@@H]2CCCN21` (racemic) [Compound 56, (±)-2-(4-cyclopropyl-2-fluoro-5-(1H-tetrazol-1-yl)phenylamino)-4-(octahydro-5,5-dimethylindolizin-7-ylamino)pyrimidine-5-carbonitrile], the EC50 (usually the concentration giving half of the maximal effect) runs as follows: under setting [1], under 0.1 µM; under setting [2], under 10 µM.
`Cn1nnn(-c2cc(Nc3ncc(F)c(N[C@H]4C[C@@H]5CCC(=O)N5C(C)(C)C4)n3)c(F)cc2C2CC2)c1=O` (racemic) [Compound 32, 1-(5-(5-fluoro-4-(hexahydro-5,5-dimethylindolizin-3(5H)-one-7-ylamino)pyrimidin-2-ylamino)-2-cyclopropyl-4-fluorophenyl)-4-methyl-1H-tetrazol-5(4H)-one]: the EC50 reads like this: under setting [1], under 10 µM; under setting [2], under 10 µM.
For `Cn1nnn(-c2cc(Nc3ncc(F)c(N[C@H]4C[C@H]5CCCN5C(C)(C)C4)n3)c(F)cc2C2CC2)c1=O` [Compound 18, 1-(5-(4-((7S,8aR)-octahydro-5,5-dimethylindolizin-7ylamino)-5-fluoropyrimidin-2-ylamino)-2-cyclopropyl-4-fluorophenyl)-4-methyl-1H-tetrazol-5(4H)-one], the EC50 runs as follows: under setting [1], under 1 µM; under setting [2], under 10 µM.
`Cn1nnn(-c2cc(Nc3ncc(C#N)c(N[C@@H]4CC5CCCN5C(C)(C)C4)n3)c(F)cc2C2CC2)c1=O` (some centres unmarked) [Compound 76]: the concentration giving a half-maximal response (EC50) runs as follows: under setting [1], under 0.1 µM; under setting [2], under 10 µM.
As to `Cc1nnnn1-c1cc(Nc2ncc(F)c(NC3CC(C)(C)N4CCCC4C3C)n2)ccc1F` (single isomer, unassigned) [Compound 70, 5-Fluoro-N2-(4-fluoro-3-(5-methyl-1H-tetrazol-1-yl)phenyl)-N4-(octahydro-5,5,8-trimethylindolizin-7-yl)pyrimidine-2,4-diamine], the EC50 is under 10 µM under setting [1] and under 10 µM under setting [2].
Turning to `CC1(C)Oc2ccc(Nc3ncc(F)c(NC4CC5CCCN5C(C)(C)C4)n3)cc2-n2nnnc21` (centres unmarked) [Compound 4, N2-(4,4-dimethyl-4H-benzo[b]tetrazolo[1,5-d][1,4]oxazin-8-yl)-5-fluoro-N4-(octahydro-5,5-dimethylindolizin-7-amine)pyrimidine-2,4-diamine], the EC50 under setting [3] was under 10 µM.
Consider `C[C@@H](O)COc1cc(F)c(Nc2ncc(F)c(N[C@@H]3C[C@@H]4CCCN4C(C)(C)C3)n2)cc1-n1nnn(C)c1=O` [Compound 82, 1-(5-(4-((7R,8aS)-5,5-dimethyloctahydroindolizin-7-ylamino)-5-fluoropyrimidin-2-ylamino)-4-fluoro-2-((R)-2-hydroxypropoxy)phenyl)-4-methyl-1H-tetrazol-5(4H)-one], for which the EC50 was under 0.1 µM (T-cell, IL-2 production, human primary T cells stimulated with αCD3 and αCD28, 24 hours, IL-2 by ELISA, read-out: EC50); under 10 µM (T-cell, human primary T cells stimulated with αCD3 and αCD28, IL-2 by ELISA, read-out: EC50 (blocked IL-2 production)).
Consider `CC1(C)CC(Nc2nc(Nc3ccc(O[C@@H]4CCOC4)c(C#N)c3)ncc2F)CC2CCCN21` (single isomer, unassigned) [Compound 58], for which the concentration for a half-maximal effect (EC50) by setting is: under setting [2], under 10 µM; under setting [3], under 10 µM.
Consider `Cn1nnn(-c2cc(Nc3ncc(F)c(NC4CC5CCCN5C(C)(C)C4)n3)ccc2OC2COC2)c1=O` (racemic) [Compound 38, 1-(5-(5-fluoro-4-(octahydro-5,5-dimethylindolizin-7-ylamino)pyrimidin-2-ylamino)-2-(oxetan-3-yloxy)phenyl)-4-methyl-1H-tetrazol-5(4H)-one], for which the EC50 under setting [3] is under 0.5 µM.
With `CC(C)N1CCC(Oc2ccc(Nc3ncc(F)c(NC4CC5CCCN5C(C)(C)C4)n3)cc2OC(F)F)CC1` (centres unmarked) [Compound 8, (R/S, S/R, R/R, S/S)—N^2-(4-(1-isopropylpiperidin-4-yloxy)-3-(difluoromethoxy)phenyl)-5-fluoro-N^4-(octahydro-5,5-dimethylindolizin-7-yl)pyrimidine-2,4-diamine], the EC50 under setting [3] was under 1 µM.
